Experimental data: US11542273B2, “Amide compound having bet proteolysis-inducing action and medicinal application thereof” (MITSUBISHI TANABE PHARMA CORPORATION, priority 2018, dated 2023)
pIC50: −log10 of the molar value.

Experiments:
[1] = test system: human prostate cancer LNCaP cells; assay: Cytotoxic action on cancer cells (WST-8, 96 hr); type: cell-based; details: Homo sapiens, LNCaP, 96 h, read-out: LNCaP cytotoxic activity: IC50
Description: The cytotoxic action of the compound of the present invention against human cancer cells was evaluated in vitro. In this experiment, (+)-JQ1 (Nature volume 468, pages 1067-1073 (23 Dec. 2010)) known to have an inhibitory activity on the binding of BRD4 protein and a ligand therefor was used as a positive control drug. Respective cells were suspended in 10% FBS/RPMI1640, seeded in a 96 well plate and cultured at 5% CO2, 37° C. overnight. A test compound dissolved in DMSO was diluted with 10% FBS/RPMI1640 and added and the cells were further cultured for 96 hr. After culturing, the viable cell number was measured using a cell number measurement WST-8 kit (Kishida Chemical Co., Ltd.). As a control, the measurement was performed under conditions free of the test compound. The cytotoxic activity of the compound of the present invention against human prostate cancer LNCaP cells is shown in IC50 value in Table 1. […] It was calculated from the straight line connecting the cell survival rate at two points enclosing the 50% cell survival rate and the compound concentration. In addition, the cytotoxic activity against respective cancer cells of human acute myeloid leukemia MV-4-11 cell, human chronic myeloid leukemia K562 cell, human multiple myeloma MM.1S cell, human diffuse large B-cell lymphoma SU-DHL-6 cell, human T-cell leukemia Jurkat cells, human Burkitt lymphoma Raji cell, human castration-resistant prostate cancer PC-3 cell, human ovarian cancer A2780 cell, human bladder cancer 5637 cell, human breast cancer ZR-75-1 cell, human triple negative breast cancer MDA-MB-231 cell, human uterine sarcoma MES-SA cell, human gastric cancer SNU-16 cell, human non-small cell lung cancer NCI-H1975 cell, human small cell lung cancer NCI-H82 cell, human large cell lung cancer NCI-H460 cell, human colorectal cancer HCT116 cell, human glioma U-87 MG cell, human pancreatic cancer AsPC-1 cell, and human liver cancer Hep G2 cell is shown in IC50 value in Table 2.

BRD4 protein = BRD4 protein (Homo sapiens (Human), UniProt O60885); assay: BRD4 protein degradation inducing action in cancer cells (immunofluorescence, Operetta); type: cell-based; details: LNCaP cells, 6 hr treatment, fluorescence intensity
Description: The degradation inducing action of the compound of the present invention on BRD4 protein in cancer cells was evaluated in vitro using human prostate cancer LNCaP cells. LNCaP cells were suspended in 10% FBS/RPMI1640, seeded in a 96 well Cell carrier plate (Perkin Elmer) and cultured at 5% CO2, 37° C. overnight. A test compound dissolved in DMSO was diluted with 10% FBS/RPMI1640 and added and the cells were further cultured for 6 hr. After culturing, the cells were immobilized with 4% para-formaldehyde/PBS and further subjected to a permeation treatment with 0.25% Triton X-100/PBS. Thereafter, the cells were blocked with 10% BSA/PBS, a solution containing Anti-Brd4 antibody (Abcam) or Anti-BRD4 (Sigma-Aldrich) as the primary antibody was added and the cells were incubated at 4° C. overnight. Thereafter, as the secondary antibody, a solution containing secondary antibody A shown below was added to Example compounds 1-190, 223 and 224, and a solution containing secondary antibody B shown below was added to Example compounds 191-222, and 0.5 μg/mL Hoechst 33342 (Sigma-Aldrich) and 14 μM Acti-Stain 555 Fluorescent Phalloidin (Cytoskeleton) were further added. After incubation for 1 hr, BRD4 protein amount was measured by Operetta (Perkin Elmer) as fluorescence intensity.
• Anti-Rabbit IgG(H+L), F(ab′)2 Fragment (Alexa Fluor 488 Conjugate) (Cell Signaling Technology), fluorescence intensity was measured at excitation: 495 nm, emission: 519 nm. Secondary Antibody B • Goat anti-Rabbit IgG(H+L) Cross-Adserbed Secondary Antibody (Alexa Fluor 546) (Thermo Fisher Scientific) fluorescence intensity was measured at excitation: 560 nm, emission: 572 nm.
The BRD4 protein degradation inducing activity of the compound of the present invention in LNCaP cells is shown in DC50 value in Table 3. The DC50 value is a concentration of the compound showing 50% fluorescence intensity when the fluorescence intensity thereof under compound untreated condition is 100%. It was calculated from the straight line connecting the fluorescence intensity at two points enclosing the 50% fluorescence intensity and the compound concentration.

| Compound | pIC50 [1] | DC50 (BRD4 protein) [nM] |
| --- | --- | --- |
| COC(=O)C[C@@H]1N=C(c2ccc(NC(=O)CCc3ccc(OCCOCCOCCOCCOCCOCCOCCOCC(=O)N[C@H](C(=O)N4C[C@H](O)C[C@H]4C(=O)N[C@@H](C)c4ccc(-c5scnc5C)cc4)C(C)(C)C)cc3)cc2)c2c(sc(C)c2C)-n2c(C)nnc21 [Example 5, methyl [(6S)-4-(4-{3-[4-({(25S)-25-[(2S,4R)-4-hydroxy-2-({(18)-1-[4-(4-methyl-1,3-thiazol-5-yl)phenyl]ethyl}carbamoyl)pyrrolidine-1-carbonyl]-26,26-dimethyl-23-oxo-3,6,9,12,15,18,21-heptaoxa-24-azaheptacosan-1-yl}oxy)phenyl]propanamido}phenyl)-2,3,9-trimethyl-6H-thieno[3,2-f][1,2,4]triazolo[4,3-a][1,4]diazepin-6-yl]acetate] | 8.92 | 0.52 |
| COC(=O)C[C@@H]1N=C(c2ccc(-c3ccc(OCC(=O)N[C@H](C(=O)N4C[C@H](O)C[C@H]4C(=O)N[C@@H](C)c4ccc(-c5scnc5C)cc4)C(C)(C)C)cc3)cc2)c2c(sc(C)c2C)-n2c(C)nnc21 [Example 15, methyl [(6S)-4-{4′-[2-({(2S)-1-[(2S,4R)-4-hydroxy-2-({(1S)-1-[4-(4-methyl-1,3-thiazol-5-yl)phenyl]ethyl}carbamoyl)pyrrolidin-1-yl]-3,3-dimethyl-1-oxobutan-2-yl}amino)-2-oxoethoxy][1,1′-biphenyl]-4-yl}-2,3,9-trimethyl-6H-thieno[3,2-f][1,2,4]triazolo[4,3-a][1,4]diazepin-6-yl]acetate] | 10.08 | 0.066 |
| Cc1ncsc1-c1ccc([C@H](C)NC(=O)[C@@H]2C[C@@H](O)CN2C(=O)[C@@H](NC(=O)COc2ccc(-c3ccc(C4=N[C@@H](C)c5nnc(C)n5-c5sc(C)c(C)c54)cc3)cc2C#N)C(C)(C)C)cc1 [Example 16, (2S,4R)-1-{(2S)-2-[2-({3-cyano-4′-[(6S)-2,3,6,9-tetramethyl-6H-thieno[3,2-f][1,2,4]triazolo[4,3-a] [1,4]diazepin-4-yl][1,1′-biphenyl]-4-yl}oxy)acetamido]-3,3-dimethylbutanoyl}-4-hydroxy-N-{(1S)-1-[4-(4-methyl-1,3-thiazol-5-yl)phenyl]ethyl}pyrrolidine-2-carboxamide] | 9.54 | 0.53 |
| COC(=O)C[C@@H]1N=C(c2ccc(-c3ccc(/C=C/C(=O)N[C@H](C(=O)N4C[C@H](O)C[C@H]4C(=O)N[C@@H](C)c4ccc(-c5scnc5C)cc4)C(C)(C)C)cc3)cc2)c2c(sc(C)c2C)-n2c(C)nnc21 [Example 27, methyl [(6S)-4-{4′-[(1E)-3-({(2S)-1-[(2S,4R)-4-hydroxy-2-({(1S)-1-[4-(4-methyl-1,3-thiazol-5-yl)phenyl]ethyl}carbamoyl)pyrrolidin-1-yl]-3,3-dimethyl-1-oxobutan-2-yl}amino)-3-oxopropen-1-yl][1,1′-biphenyl]-4-yl}-2,3,9-trimethyl-6H-thieno[3,2-f][1,2,4]triazolo[4,3-a] [1,4]diazepin-6-yl]acetate] | 10.19 | 0.085 |
| COC(=O)C[C@@H]1N=C(c2ccc(-c3ccc(CCC(=O)N[C@H](C(=O)N4C[C@H](O)C[C@H]4C(=O)N[C@@H](C)c4ccc(-c5scnc5C)cc4)C(C)(C)C)cc3)cc2)c2c(sc(C)c2C)-n2c(C)nnc21 [Example 28, methyl [(6S)-4-{4′-[3-({(2S)-1-[(2S,4R)-4-hydroxy-2-({(1S)-1-[4-(4-methyl-1,3-thiazol-5-yl)phenyl]ethyl}carbamoyl)pyrrolidin-1-yl]-3,3-dimethyl-1-oxobutan-2-yl}amino)-3-oxopropyl][1,1′-biphenyl]-4-yl}-2,3,9-trimethyl-6H-thieno[3,2-f][1,2,4]triazolo[4,3-a][1,4]diazepin-6-yl]acetate] | 10.36 | 0.023 |
| Cc1ncsc1-c1ccc([C@H](C)NC(=O)[C@@H]2C[C@@H](O)CN2C(=O)[C@@H](NC(=O)COc2ccc(-c3ccc(C4=NC(O)c5nnc(C)n5-c5sc(C)c(C)c54)cc3)cc2)C(C)(C)C)cc1 (stereo partly drawn) [Example 30, (2S,4R)-4-hydroxy-1-[(2S)-2-(2-{[4′-(6-hydroxy-2,3,9-trimethyl-6H-thieno[3,2-f][1,2,4]triazolo[4,3-a][1,4]diazepin-4-yl)[1,1′-biphenyl]-4-yl]oxy}acetamido)-3,3-dimethylbutanoyl]-N-{(1S)-1-[4-(4-methyl-1,3-thiazol-5-yl)phenyl]ethyl}pyrrolidine-2-carboxamide] | 9.00 | 0.43 |
| Cc1ncsc1-c1ccc([C@H](C)NC(=O)[C@@H]2C[C@@H](O)CN2C(=O)[C@@H](NC(=O)COc2ccc(-c3ccc(C4=N[C@@H](C)c5nnc(C)n5-c5sc(C)c(C)c54)cc3)cc2)C(C)(C)C)cc1 [Example 33, (2S,4R)-1-{(2S)-3,3-dimethyl-2-[2-({4′-[(6S)-2,3,6,9-tetramethyl-6H-thieno[3,2-f][1,2,4]triazolo[4,3-a] [1,4]diazepin-4-yl][1,1′-biphenyl]-4-yl}oxy)acetamido]butanoyl}-4-hydroxy-N-{(1S)-1-[4-(4-methyl-1,3-thiazol-5-yl)phenyl]ethyl}pyrrolidine-2-carboxamide] | 9.59 | 0.38 |
| CC(=O)NC1N=C(c2ccc(-c3ccc(OCC(=O)N[C@H](C(=O)N4C[C@H](O)C[C@H]4C(=O)N[C@@H](C)c4ccc(-c5scnc5C)cc4)C(C)(C)C)cc3)cc2)c2c(sc(C)c2C)-n2c(C)nnc21 (stereo partly drawn) [Example 34, (2S,4R)-1-[(2S)-2-(2-{[4′-(6-acetamido-2,3,9-trimethyl-6H-thieno[3,2-f][1,2,4]triazolo[4,3-a][1,4]diazepin-4-yl) [1,1′-biphenyl]-4-yl]oxy}acetamido)-3,3-dimethylbutanoyl]-4-hydroxy-N-{(1S)-1-[4-(4-methyl-1,3-thiazol-5-yl)phenyl]ethyl}pyrrolidine-2-carboxamide] | 9.14 | 0.098 |
| COC(=O)N(C)C1N=C(c2ccc(-c3ccc(OCC(=O)N[C@H](C(=O)N4C[C@H](O)C[C@H]4C(=O)N[C@@H](C)c4ccc(-c5scnc5C)cc4)C(C)(C)C)cc3)cc2)c2c(sc(C)c2C)-n2c(C)nnc21 (stereo partly drawn) [Example 35, methyl (4-{4′-[2-({(2S)-1-[(2S,4R)-4-hydroxy-2-({(1S)-1-[4-(4-methyl-1,3-thiazol-5-yl)phenyl]ethyl}carbamoyl)pyrrolidin-1-yl]-3,3-dimethyl-1-oxobutan-2-yl}amino)-2-oxoethoxy][1,1′-biphenyl]-4-yl}-2,3,9-trimethyl-6H-thieno[3,2-f][1,2,4]triazolo[4,3-a][1,4]diazepin-6-yl)methylcarbamate] | 8.41 | 0.66 |
| COC(=O)C[C@@H]1N=C(c2ccc(-c3ccc(COCC(=O)N[C@H](C(=O)N4C[C@H](O)C[C@H]4C(=O)N[C@@H](C)c4ccc(-c5scnc5C)cc4)C(C)(C)C)cc3)cc2)c2c(sc(C)c2C)-n2c(C)nnc21 [Example 39, methyl [(6S)-4-(4′-{[2-({(2S)-1-[(2S,4R)-4-hydroxy-2-({(1S)-1-[4-(4-methyl-1,3-thiazol-5-yl)phenyl]ethyl}carbamoyl)pyrrolidin-1-yl]-3,3-dimethyl-1-oxobutan-2-yl}amino)-2-oxoethoxy]methyl}[1,1′-biphenyl]-4-yl)-2,3,9-trimethyl-6H-thieno[3,2-f][1,2,4]triazolo[4,3-a] [1,4]diazepin-6-yl]acetate] | 10.15 | 0.013 |
